Structures can show the parent of a compound that is named as a salt. Where two headings read alike, the source gives them in different places.
Conditions: for aqueous pH: concentration not stated (summary)

Row | solution pH (at 8 mg/ml) | aqueous pH | solution pH (at 50 mg/ml) | aqueous pH (Disodium Salt Monohydrate) | Structure (SMILES)
1 | 2.2 | about 2.2 | – | – | NCCCC(O)(P(=O)(O)O)P(=O)(O)O [free acid, 4-amino-1-hydroxybutylidene-1,1-bisphosphonic acid]
2 | – | – | 8.7 | about 8.7 | NCCCC(O)(P(=O)(O)O)P(=O)(O)O [disodium salt, 4-Amino-1-Hydroxy-Butylidene-1,1-Bisphosphonic Acid Disodium Salt Monohydrate]
